The values that follow come from patent publication US12410171B2, “Tropomyosin receptor kinase (TRK) degradation compounds and methods of use” (Cullgen (Shanghai), Inc., priority 2020, dated 2025).

Like-named read-outs stand apart in the source and are kept apart here. A value given as a limit tells only on which side of the number the result lay.

The target of one test is T1, TPM3-TRKA fusion protein (Homo sapiens, UniProt P04629).
T1 construct: The resulted chimeric proteins always retain the kinase domain of TRK proteins; TPM3 (fusion partner, N-terminal part of tropomyosin alpha-3, P06753); endogenous in cells; host or cells: KM12 colon cancer cells; the other entry of the earlier key: TPM3 (P06753, Tropomyosin alpha-3 chain)
The test is described as follows: TPM3-TRKA fusion protein levels in KM12 cells (Western blot). The format is cell-based. The conditions noted are these: 16 h; TPM3-TRKA degradation in KM12 cells at 10 nM compound, category of percentage degradation; read-out: Degradation (at 10 nM). A digest of the protocol: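 KM12 colon cancer cells were treated with DMSO or compounds at 0.1–100 nM, 0.4–30 nM or other stated concentrations for 4, 8–16 or 16 h. RIPA lysates were BCA-normalized and resolved by SDS-PAGE. TPM3-TRKA was detected by chemiluminescent Western blot, with bands quantified by densitometry.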
Background: Immunoblotting shows a protein as a band on a membrane.

The next test deals with KM12 cells. Description: KM12 cell viability (CellTiter-Glo). The conditions noted are these: Homo sapiens, 72 h, KM12 cell viability, CellTiter-Glo, read-out: IC50. The format is cell-based. A digest of the protocol: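 KM12 cells seeded at 5000 per well in RPMI 1640 + 10% FBS and exposed 3 days to serial dilutions (11-point 3-fold, 8-point 3-fold from 1000 nM, or 12-point 2-fold). Viability by CellTiter-Glo; IC50 from least-squares nonlinear regression.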

The mark [1] stands for this setting: 11-point 3-fold serial dilution, 3 days.

T1 sequence (P04629 with tags, fused parts or gaps): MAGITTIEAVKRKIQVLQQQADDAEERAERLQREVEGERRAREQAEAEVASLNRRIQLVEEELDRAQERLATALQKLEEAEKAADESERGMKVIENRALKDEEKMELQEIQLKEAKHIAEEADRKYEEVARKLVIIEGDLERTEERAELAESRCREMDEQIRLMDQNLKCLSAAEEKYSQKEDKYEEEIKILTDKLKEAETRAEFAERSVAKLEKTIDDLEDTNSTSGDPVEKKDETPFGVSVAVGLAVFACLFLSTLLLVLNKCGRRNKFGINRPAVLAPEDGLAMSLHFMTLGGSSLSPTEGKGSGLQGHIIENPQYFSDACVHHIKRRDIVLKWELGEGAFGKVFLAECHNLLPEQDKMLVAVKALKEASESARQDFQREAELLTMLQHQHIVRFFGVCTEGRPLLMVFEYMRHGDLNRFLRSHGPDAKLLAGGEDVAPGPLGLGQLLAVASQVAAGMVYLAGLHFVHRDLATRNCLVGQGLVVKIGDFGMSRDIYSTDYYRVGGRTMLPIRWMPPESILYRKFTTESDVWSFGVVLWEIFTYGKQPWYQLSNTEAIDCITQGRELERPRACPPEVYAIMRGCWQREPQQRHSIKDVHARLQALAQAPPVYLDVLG

The term IC50 denotes the concentration at which inhibition is half-maximal. Turning to `O=C1CCC(N2C[C@H](c3ccc(C#CCN4CCN(c5cccc(-c6cnc7ccc(N8CCCC8c8cccc(F)c8)nn67)n5)CC4)cc3)OC2=O)C(=O)N1` (stereo in doubt) [TR-224, 3-((S)-5-(4-(3-(4-(6-(6-((S)-2-(3-fluorophenyl)pyrrolidin-1-yl)imidazo[1,2-b]pyridazin-3-yl)pyridin-2-yl)piperazin-1-yl)prop-1-yn-1-yl)phenyl)-2-oxooxazolidin-3-yl)piperidine-2,6-dione], on TPM3-TRKA fusion protein, the percent degradation of TPM3-TRKA protein at 0.01 µM was > 80%. Also, the 50% inhibitory concentration (IC50) in the test on KM12 cells (three days treatment) is 8.7 nM.

As to `COc1ccc(COc2ccc(Cn3c(N)nc4cc(-c5cnn(CC(=O)NCCOCCOCCOCCOCCC(=O)N[C@H](C(=O)N6C[C@H](O)C[C@H]6C(=O)NCc6ccc(-c7scnc7C)cc6)C(C)(C)C)c5)cnc43)cc2OC)cc1` [CPD-515, (2S,4R)-1-((S)-1-(4-(2-amino-3-(3-methoxy-4-((4-methoxybenzyl)oxy)benzyl)-3H-imidazo[4,5-b]pyridin-6-yl)-1H-pyrazol-1-yl)-20-(tert-butyl)-2,18-dioxo-6,9,12,15-tetraoxa-3,19-diazahenicosan-21-oyl)-4-hydroxy-N-(4-(4-methylthiazol-5-yl)benzyl)pyrrolidine-2-carboxamide], the IC50 in the test with KM12 cells (setting [1]) stood at 343 nM.

In the case of `COc1ccc(COc2ccc(Cn3c(N)nc4cc(-c5cnn(CC(=O)NCCOCCOCCOCCOCCOCCC(=O)N[C@H](C(=O)N6C[C@H](O)C[C@H]6C(=O)NCc6ccc(-c7scnc7C)cc6)C(C)(C)C)c5)cnc43)cc2OC)cc1` [CPD-516, (2S,4R)-1-((S)-1-(4-(2-amino-3-(3-methoxy-4-((4-methoxybenzyl)oxy)benzyl)-3H-imidazo[4,5-b]pyridin-6-yl)-1H-pyrazol-1-yl)-23-(tert-butyl)-2,21-dioxo-6,9,12,15,18-pentaoxa-3,22-diazatetracosan-24-oyl)-4-hydroxy-N-(4-(4-methylthiazol-5-yl)benzyl)pyrrolidine-2-carboxamide], the IC50 in the test on KM12 cells (setting [1]) worked out at 473 nM.

With `O=C1CCC(N2Cc3cc(OCCN4CCN(c5cccc(-c6cnc7ccc(N8CCC[C@@H]8c8cccc(F)c8)nn67)n5)CC4)ccc3C2=O)C(=O)N1` (stereo partly drawn) [TR-200, 3-(5-(2-(4-(6-(6-((R)-2-(3-fluorophenyl)pyrrolidin-1-yl)imidazo[1,2-b]pyridazin-3-yl)pyridin-2-yl)piperazin-1-yl)ethoxy)-1-oxoisoindolin-2-yl)piperidine-2,6-dione], the IC50 in the test with KM12 cells (three days treatment) was found to be 101 nM.

As for `O=C1CCC(N2Cc3ccc(OCCN4CCN(c5cccc(-c6cnc7ccc(N8CCC[C@@H]8c8cccc(F)c8)nn67)n5)CC4)cc3C2=O)C(=O)N1` (stereo partly drawn) [TR-201, 3-(6-(2-(4-(6-(6-((R)-2-(3-fluorophenyl)pyrrolidin-1-yl)imidazo[1,2-b]pyridazin-3-yl)pyridin-2-yl)piperazin-1-yl)ethoxy)-1-oxoisoindolin-2-yl)piperidine-2,6-dione], in the test with KM12 cells (three days treatment), the IC50 was > 500 nM.

In the case of `O=C1CCC(N2C(=O)c3ccc(N4CC(CN5CCC(n6ccc(-c7cnc8ccc(N9CCC[C@@H]9c9cccc(F)c9)nn78)c6)CC5)C4)cc3C2=O)C(=O)N1` (stereo partly drawn) [TR-222, 2-(2,6-Dioxopiperidin-3-yl)-5-(3-((4-(3-(6-((R)-2-(3-fluorophenyl)pyrrolidin-1-yl)imidazo[1,2-b]pyridazin-3-yl)-1H-pyrrol-1-yl)piperidin-1-yl)methyl)azetidin-1-yl)isoindoline-1,3-dione], the half-inhibitory concentration (IC50) with KM12 cells (three days treatment) is > 500 nM.

For `O=C1CCC(N2C(=O)c3ccc(N4CC(CN5CCN(c6cccc(-c7cnc8ccc(N9CCC[C@@H]9c9cccc(F)c9)cn78)n6)CC5)C4)cc3C2=O)C(=O)N1` (stereo partly drawn) [TR-234, 2-(2,6-dioxopiperidin-3-yl)-5-(3-((4-(6-(6-((R)-2-(3-fluorophenyl)pyrrolidin-1-yl)imidazo[1,2-a]pyridin-3-yl)pyridin-2-yl)piperazin-1-yl)methyl)azetidin-1-yl)isoindoline-1,3-dione], in the test with KM12 cells (three days treatment), the half-maximal inhibitory concentration (IC50) worked out at 284 nM.

As to `O=C1CCC(n2c(=O)n(CCCN3CCN(c4cccc(-c5cnc6ccc(N7CCC[C@@H]7c7cccc(F)c7)cn56)n4)CC3)c3ccccc32)C(=O)N1` (stereo partly drawn) [TR-243, 3-(3-(3-(4-(6-(6-((R)-2-(3-Fluorophenyl)pyrrolidin-1-yl)imidazo[1,2-a]pyridin-3-yl)pyridin-2-yl)piperazin-1-yl)propyl)-2-oxo-2,3-dihydro-1H-benzo[d]imidazol-1-yl)piperidine-2,6-dione], the IC50 in the test with KM12 cells (three days treatment) was > 500 nM.

As to `Cn1c(=O)n(C2CCC(=O)NC2=O)c2ccc(OCCCN3CCN(c4cccc(-c5cnc6ccc(N7CCC[C@@H]7c7cccc(F)c7)nn56)n4)CC3)cc21` (stereo partly drawn) [TR-257, 3-(5-(3-(4-(6-(6-((R)-2-(3-Fluorophenyl)pyrrolidin-1-yl)imidazo[1,2-b]pyridazin-3-yl)pyridin-2-yl)piperazin-1-yl)propoxy)-3-methyl-2-oxo-2,3-dihydro-1H-benzo[d]imidazol-1-yl)piperidine-2,6-dione], the IC50 in the test on KM12 cells (three days treatment) was > 500 nM.

On to `O=C1CCC(N2C(=O)c3ccc(CN4CCN(c5ccc(C(=O)Nc6n[nH]c7ccc(Cc8cc(F)cc(F)c8)cc67)c(NC6CCOCC6)c5)CC4)cc3C2=O)C(=O)N1` (stereo not shown) [TR-274, N-(5-(3,5-Difluorobenzyl)-1H-indazol-3-yl)-4-(4-((2-(2,6-dioxopiperidin-3-yl)-1,3-dioxoisoindolin-5-yl)methyl)piperazin-1-yl)-2-((tetrahydro-2/-pyran-4-yl)amino)benzamide], for which the 50% inhibitory concentration (IC50) in the test with KM12 cells (three days treatment) stood at 440 nM.

On to `O=C1CCC(N2C(=O)c3ccc(CCN4CCN(c5ccc(C(=O)Nc6n[nH]c7ccc(Cc8cc(F)cc(F)c8)cc67)c(NC6CCOCC6)c5)CC4)cc3C2=O)C(=O)N1` (stereo not shown) [TR-277, N-(5-(3,5-Difluorobenzyl)-1H-indazol-3-yl)-4-(4-(2-(2-(2,6-dioxopiperidin-3-yl)-1,3-dioxoisoindolin-S-yl)ethyl)piperazin-1-yl)-2-((tetrahydro-2H-pyran-4-yl)amino)benzamide], for which the IC50 in the test on KM12 cells (three days treatment) was > 500 nM.

Turning to `O=C1CCC(N2C(=O)c3ccc(N4CC5(CCC(N6CCN(c7ccc(C(=O)Nc8n[nH]c9ccc(Cc%10cc(F)cc(F)c%10)cc89)c(NC8CCOCC8)c7)CC6)C5)C4)cc3C2=O)C(=O)N1` (stereo not shown) [TR-291, N-(5-(3,5˜Difluorobenzyl)-1H-indazol-3-yl)-4-(4-(2-(2-(2,6-dioxopiperidin-3-yl)-1,3-dioxoisoindolin-5-yl)-2-azaspiro[3.4]octan-6-yl)piperazin-1-yl)-2-((tetrahydro-2H-pyran˜4-yl)amino)benzamide], the IC50 with KM12 cells (three days treatment) turned out to be 446 nM.

Consider `Cc1nc2cccc(N3CC(CCN4CCN(c5cccc(-c6cnc7ccc(N8CCC[C@@H]8c8cccc(F)c8)nn67)n5)CC4)C3)c2c(=O)n1C1CCC(=O)NC1=O` (stereo partly drawn) [TR-307, 3-(5˜ (3-(2-(4-(6-(6-((R)-2-(3-Fluorophenyl)pyrrolidin-1-yl)imidazo[1,2-b]pyridazin-3-yl)pyridin-2-yl)piperazin-1-yl)ethyl)azetidin-1-yl)-2-methyl-4-oxoquinazolin-3 (4H)-yl)piperidine-2,6-dione], for which, in the test with KM12 cells (three days treatment), the 50% inhibitory concentration (IC50) was found to be 12.7 nM.

As to `O=C1CCC(n2c(=O)n(CCN3CCN(c4ccc(C(=O)Nc5n[nH]c6ccc(Cc7cc(F)cc(F)c7)cc56)c(NC5CCOCC5)c4)CC3)c3ccccc32)C(=O)N1` (stereo not drawn) [TR-310, N—(S-(3,5-Difluorobenzyl)-1H-indazol-3-yl)-4-(4-(2-(3-(2,6-dioxopiperidin-3-yl)-2-oxo-2,3-dihydro-1H-benzo[d]imidazol-1-yl)ethyl)piperazin-1-yl)-2-((tetrahydro-2H-pyran-4-yl)amino)benzamide], in the test with KM12 cells (three days treatment), the IC50 was found to be 12.5 nM.

Consider `O=C1CCC(n2c(=O)n(CCCN3CCN(c4ccc(C(=O)Nc5n[nH]c6ccc(Cc7cc(F)cc(F)c7)cc56)c(NC5CCOCC5)c4)CC3)c3ccccc32)C(=O)N1` (stereo not drawn) [TR-311, N—(S-(3,5-Difluorobenzyl)-1H-indazol-3-yl)-4-(4-(3-(3-(2,6-dioxopiperidin-3-yl)-2-oxo-2,3-dihydro-1H-benzo[d]imidazol-1-yl)propyl)piperazin-1-yl)-2˜ ((tetrahydro-2H-pyran-4-yl)amino)benzamide], for which the IC50 in the test with KM12 cells (three days treatment) is 14.8 nM.

Regarding `Cn1c(=O)n(C2CCC(=O)NC2=O)c2cccc(OCCCN3CCN(c4ccc(C(=O)Nc5n[nH]c6ccc(Cc7cc(F)cc(F)c7)cc56)c(NC5CCOCC5)c4)CC3)c21` (stereo not shown) [TR-312, N-(5-(3,5-Difluorobenzyl)-1H-indazol-3-yl)-4-(4-(3-((1-(2,6-dioxopiperidin-3-yl)-3-methyl-2-oxo-2,3-dihydro-1H-benzo[d]imidazol-4-yl)oxy)propyl)piperazin-1-yl)-2-((tetrahydro-2/˜pyran-4-yl)amino)benzamide], the IC50 in the test on KM12 cells (three days treatment) stood at 107 nM.

`Cn1c(=O)n(C2CCC(=O)NC2=O)c2ccc(OCCCN3CCN(c4ccc(C(=O)Nc5n[nH]c6ccc(Cc7cc(F)cc(F)c7)cc56)c(NC5CCOCC5)c4)CC3)cc21` (stereo not shown) [TR-313, N-(5-(3,5-Difluorobenzyl)-1H-indazol-3-yl)-4-(4-(3-((1-(2,6-dioxopiperidin-3-yl)-3-methyl-2-oxo-2,3-dihydro-1H-benzo[d]imidazol-5-yl)oxy)propyl)piperazin-1-yl)-2-((tetrahydro-2/1-pyran-4-yl)amino)benzamide]: the IC50 with KM12 cells (three days treatment) is 13.8 nM.

As for `O=C1CCC(N2C(=O)c3ccc(N4CC5(CN(CC6CCN(c7ccc(C(=O)Nc8n[nH]c9ccc(Cc%10cc(F)cc(F)c%10)cc89)c(NC8CCOCC8)c7)CC6)C5)C4)cc3C2=O)C(=O)N1` (stereo not shown) [TR-329], the half-maximal inhibitory concentration (IC50) in the test with KM12 cells (three days treatment) is > 500 nM.
